Measurements from PubChem BioAssay (NCI).
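Five concentrations, 48 hours, 96-well plates. Here, GI50 denotes the concentration required for 50% inhibition of growth. The concentration for full growth arrest is given as TGI.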

How the values were obtained:
Test in all cases: NCI anticancer screen, dose series, 48 h
[1] = tested on: A498 renal
[2] = tested on: SR leukemia
[3] = tested on: SNB-78 CNS
[4] = tested on: DMS 273 small cell lung
[5] = tested on: 786-0 renal
[6] = tested on: LXFL 529 NSCLC
[7] = tested on: PC-3 prostate
[8] = tested on: MDA-MB-435
[9] = tested on: MCF7 breast
[10] = tested on: MDA-MB-231 breast
[11] = tested on: NCI/ADR-RES ovarian
[12] = tested on: DU-145 prostate

Compound	TGI [1]	TGI [2]	TGI [3]	TGI [4]	TGI [5]	TGI [6]	TGI [7]	TGI [8]	TGI [9]	TGI [10]	TGI [11]	TGI [12]	GI50 [7]	GI50 [8]	GI50 [9]	GI50 [10]	GI50 [11]	GI50 [12]	GI50 [1]	GI50 [2]
c1ccc(N=c2nc(N3CCOCC3)ss2)cc1	79.5 µM	58.3 µM	51.3 µM	31.4 µM	30.1 µM	24.6 µM	–	–	–	–	–	–	–	–	–	–	–	–	–	–
O=C(COc1ccc(OCC(=O)NNC2=NC(c3cc(F)c(Cl)cc3Cl)CS2)c(Cl)c1)NNC1=NC(c2cc(F)c(Cl)cc2Cl)CS1 (centres undefined)	56.2 µM	> 100 µM	–	–	> 100 µM	–	> 100 µM	44.6 µM	34.6 µM	54.5 µM	> 100 µM	59.8 µM	–	–	–	–	–	–	–	–
CC(=O)OCC1=C(C(=O)O)C(c2ccc3c(c2)OCO3)c2cc3c(cc2O1)OCO3 (centres undefined)	–	–	> 100 µM	> 100 µM	–	–	–	–	–	–	–	–	–	–	–	–	–	–	–	–
NC1(C(=O)O)CCc2ccc(N(CCCl)CCCl)cc2C1 (centres undefined)	> 100 µM	–	–	> 100 µM	–	–	–	–	> 100 µM	–	> 100 µM	–	–	–	–	–	–	–	–	–
CCOc1ccc(/C(C=O)=C(\Cl)c2ccc(OC)c(OC)c2)cc1	> 100 µM	–	> 100 µM	> 100 µM	–	> 100 µM	–	–	–	–	–	–	–	–	–	–	–	–	–	–
Cc1cc(C)nc(SCC(=O)OC2CC(C)CCC2C(C)C)n1 (centres undefined)	47.2 µM	–	–	–	42.6 µM	–	69.5 µM	58.3 µM	50.7 µM	49.7 µM	50.7 µM	> 100 µM	–	–	–	–	–	–	–	–
Cc1cc2c(C(C)C)c(O)c(O)c(C=NCCO)c2c(O)c1-c1c(C)cc2c(C(C)C)c(O)c(O)c(C=NCCO)c2c1O	9.76 µM	3.78 µM	34.1 µM	3.16 µM	4.83 µM	3.05 µM	–	–	–	–	–	–	–	–	–	–	–	–	–	–
C=C1C(=O)O[C@@H]2[C@H]1CCC(C)=C1C=CC(=O)[C@]12C	–	43 µM	18.9 µM	41.1 µM	–	26.7 µM	–	–	–	–	–	–	–	–	–	–	–	–	–	–
Clc1ccc(CNc2nc(Cl)c3[nH]cnc3n2)cc1Cl	45.4 µM	77.6 µM	–	–	> 100 µM	–	> 100 µM	> 100 µM	84.5 µM	> 100 µM	69.6 µM	> 100 µM	–	–	–	–	–	–	–	–
COC(=O)[C@@]1(Cc2ccc(O)cc2)C[C@@H]2Cc3ccccc3N2N1	97.3 µM	> 100 µM	–	–	> 100 µM	–	> 100 µM	> 100 µM	> 100 µM	> 100 µM	> 100 µM	> 100 µM	–	–	–	–	–	–	–	–
Fc1ccc(-c2nn3c(-c4cc(C(F)(F)F)cc(C(F)(F)F)c4)nnc3s2)cc1	–	–	–	–	–	–	> 50 µM	> 50 µM	> 50 µM	> 50 µM	> 50 µM	> 50 µM	> 50 µM	> 50 µM	> 50 µM	1.79 µM	2.95 µM	> 50 µM	–	–
Cc1ccc(C2N=C(N)NC3=C2CCOc2c3ccc3ccccc23)cc1 (centres undefined)	41 µM	> 100 µM	–	–	> 71.7 µM	–	> 75 µM	> 23.4 µM	> 51.5 µM	32.7 µM	> 60.5 µM	> 85.4 µM	–	–	–	–	–	–	–	–
Cc1c(-c2ccccc2)c(C#N)c2nnn(C3CCCCC3)c(=O)n12	> 100 µM	> 100 µM	–	–	> 100 µM	–	> 100 µM	> 100 µM	> 100 µM	66 µM	> 100 µM	> 100 µM	–	–	–	–	–	–	–	–
O=C(Nc1c(C(=O)NC2CCCCC2)[nH]c(=O)[nH]c1=O)c1ccc(Cl)cc1	–	> 100 µM	–	–	–	> 100 µM	–	–	–	–	–	–	–	–	–	–	–	–	–	–
COc1cc(C(=O)C2C(=O)c3ccccc3C2C2(O)c3ccccc3CC2C(O)c2cc(OC)c(OC)c(OC)c2)cc(OC)c1OC (centres undefined)	> 100 µM	> 100 µM	–	–	> 100 µM	–	> 100 µM	> 100 µM	> 100 µM	> 100 µM	> 100 µM	> 100 µM	–	–	–	–	–	–	–	–
COc1c2c(cc3c1OCO3)C13C=CC(OC)CC1N(CC3)C2 (centres undefined)	> 100 µM	22.2 µM	–	–	> 100 µM	–	> 100 µM	> 100 µM	> 100 µM	> 100 µM	> 100 µM	> 100 µM	–	–	–	–	–	–	–	–
CCCC(N)C(=O)c1ccccc1 (centres undefined)	> 100 µM	> 100 µM	> 100 µM	> 100 µM	> 100 µM	> 100 µM	–	–	–	–	–	–	–	–	–	–	–	–	–	–
O=C(Nc1ccc(Sc2ccc(N=Nc3c(O)c(S(=O)(=O)O)cc4cc(S(=O)(=O)O)ccc34)cc2)cc1)c1ccc(N=Nc2c(O)ccc3c(S(=O)(=O)O)cc(S(=O)(=O)O)cc23)cc1	> 100 µM	85.2 µM	> 100 µM	> 100 µM	> 100 µM	> 100 µM	–	–	–	–	–	–	–	–	–	–	–	–	–	–
O=c1c2ccccc2nc2n1C(c1ccc([N+](=O)[O-])cc1)C2(c1ccccc1)c1ccccc1 (centres undefined)	> 100 µM	–	–	–	> 100 µM	–	> 100 µM	> 100 µM	> 100 µM	> 100 µM	> 100 µM	> 100 µM	–	–	–	–	–	–	–	–
CCC(=O)NC(Nc1cccc(F)c1)(C(F)(F)F)C(F)(F)F	–	> 100 µM	–	–	–	–	> 100 µM	> 100 µM	> 100 µM	> 100 µM	> 100 µM	> 100 µM	–	–	–	–	–	–	–	–
CC(=O)O[C@H]1C=CC(=O)C(C)CC1C (some centres undefined)	> 100 µM	> 100 µM	> 100 µM	> 100 µM	–	> 100 µM	–	–	–	–	–	–	–	–	–	–	–	–	–	–
Cc1cc(C)c2c(c1)C1=NCCN1C2(O)c1ccc(Cl)cc1 (centres undefined)	28.6 µM	62 µM	–	–	29.6 µM	–	36.3 µM	32.5 µM	34.3 µM	28.2 µM	30.2 µM	40.5 µM	–	–	–	–	–	–	–	–
CC(=O)C=NCC(=O)O	> 100 µM	> 100 µM	–	–	> 100 µM	–	> 100 µM	> 100 µM	> 100 µM	> 100 µM	> 100 µM	> 100 µM	–	–	–	–	–	–	–	–
O=C(O)C1CCC(=O)N1S(=O)(=O)c1ccccc1 (centres undefined)	> 100 µM	–	> 100 µM	> 100 µM	–	–	–	–	> 100 µM	–	> 100 µM	–	–	–	–	–	–	–	–	–
COc1ccc(-c2nn(-c3cccc(NC(=O)Nc4ccccc4)c3)cc2-c2ccncc2)cc1Cl	3.28 µM	6.69 µM	–	–	–	–	4.5 µM	5.25 µM	4.91 µM	8.01 µM	8.26 µM	5.87 µM	1.84 µM	2.03 µM	2.07 µM	2.53 µM	2.81 µM	2.47 µM	1.17 µM	2.35 µM
c1ccc(-c2nnc(SCc3c[nH]c4ccccc34)n2-c2ccccc2)cc1	56 µM	> 100 µM	–	–	> 100 µM	–	93.9 µM	> 100 µM	> 100 µM	> 100 µM	> 100 µM	> 100 µM	–	–	–	–	–	–	–	–
CC(C)(C)OC(=O)NCCC(=O)NC1(c2cc3ccccc3s2)CCCCC1	45.4 µM	–	–	–	35.7 µM	–	37 µM	33.1 µM	41 µM	38.4 µM	41.6 µM	33.6 µM	–	–	–	–	–	–	–	–
